Laboratory results taken from patent US20170044230A1 (USTAV ORGANICKE CHEMIE A BIOCHEMIE AV CR, V.V.I., priority 2014, published 2017).
Non-standard residues stand in square brackets, D forms with d. Residues, ends and D or L forms follow the SMILES beside them. *: point of attachment. 1Nal = N[C@@H](Cc1cccc2ccccc12)C(=O)O; Palmitoyl = CCCCCCCCCCCCCCCC(=O)*; Myristoyl = CCCCCCCCCCCCCC(=O)*; Cha = N[C@@H](CC1CCCCC1)C(=O)O; Decanoyl = CCCCCCCCCC(=O)*; Octanoyl = CCCCCCCC(=O)*; Dap = NC[C@H](N)C(=O)O; Sar = CNCC(=O)O

Experiments:
human GHS-R1a receptor = target: T1, human GHS-R1a receptor (Homo sapiens, UniProt Q92847); assay: Competitive binding studies (displacement of 125I-ghrelin); conditions: for % of ghrelin binding: relative to ghrelin = 100; for affinity for GHS-R1a compared with ghrelin: in words
T1 construct: purchased Multispan, Hayward, Calif., USA; host or cells: HEK293T cells, isolated plasma membranes
T1 sequence (Q92847 whole entry): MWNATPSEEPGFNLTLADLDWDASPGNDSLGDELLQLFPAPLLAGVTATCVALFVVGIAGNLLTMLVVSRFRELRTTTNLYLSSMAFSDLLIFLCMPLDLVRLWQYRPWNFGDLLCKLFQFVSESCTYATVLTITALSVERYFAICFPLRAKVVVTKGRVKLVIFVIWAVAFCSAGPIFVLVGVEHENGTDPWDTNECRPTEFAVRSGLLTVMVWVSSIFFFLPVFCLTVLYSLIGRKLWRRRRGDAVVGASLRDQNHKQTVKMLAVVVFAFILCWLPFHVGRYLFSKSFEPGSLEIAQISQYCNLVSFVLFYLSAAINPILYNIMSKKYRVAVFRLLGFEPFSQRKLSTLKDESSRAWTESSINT
Method: Isolated plasma membranes from the HEK293T cells with transfected human GHS-R1a receptor (Multispan, Hayward, Calif., USA) were used. […] Experiments were carried out in duplicates at least three times. Competitive binding curves were plotted using GraphPad Prism Software (San Diego, Calif., USA) while comparing the best fit for single binding sites models.

fed C57BL/6 male mice = assay: Effect of SC administered ghrelin analogs on food intake; assay type: in vivo; conditions: for maximal effect at 5 mg/kg on food intake: SC 5 mg/kg, evaluated 480 min after administration; for ED50 (250 min after injection), effect on food intake: SC, fed mice
Method: All of the experiments followed the ethical guidelines for animal experiments and Czech Republic law 246/1992 and were approved by the committee for experiments with laboratory animals of the Academy of Sciences of the Czech Republic. Male C57BL/6 mice (Charles River, Germany) were housed at a temperature 22±2° C. under a daily cycle of 12/12 h light/dark (light from 6:00) with free access to water and a standard chow diet St-1 which contained […] of calories from protein, fat and carbohydrate, respectively, and its energy content was 3.4 kcal/g (Mlýn Kocanda, Praha, Czech Republic). Mice were placed into separate cages for one week before experiment, they had free access to water and food pellets. Closely before the experiment, the food pellets were removed from the cages. […] 15 min after the injection, mice were given preweighed food pellets. Food intake was monitored for 8-10 hours at 30-min intervals. Mice had free access to water during the experiment. Experiments were performed at least twice for each tested compound, each experimental group had at least 5 mice.
Data from food intake experiments were analyzed by one-way ANOVA followed by Dunnett's post-hoc test using GraphPad Prism Software (San Diego, Calif., USA), P<0.05 was considered statistically significant. ED50 values were calculated using GraphPad Prism Software as the dose of the tested compound required to elicit half-maximal effect at 250 min after administration of the corresponding compound.
Food intake was monitored for […] after administration of the compounds. ED50 values were determined 250 min after administration. Maximal effect on food intake was evaluated […] after administration of the compounds at a dose of 5 mg/kg of body weight. NT—not tested.

[1] = Pharmacokinetics in vivo after SC administration to mice; conditions: SC 5 mg/kg
Method: Mice were housed at a temperature 22±2° C. under a daily cycle of 12/12 h light/dark (light from 6:00) with free access to water and a standard chow diet St-1 (Mlýn Kocanda, Praha, Czech Republic).
4, 6, 14 and 18 at a dose of 5 mg/kg of body weight (0.2 ml/mouse, n=4). Blood was collected from tails before injection and 0.5, 1, 2, 4, 8, 16 and 24 h after injection. Plasma was separated and stored at −20° C.

[2] = tested on: rat model of subtotal nephrectomy; assay: Rat model of renal cachexia (subtotal nephrectomy, SNx); assay type: in vivo; conditions: SNx rats, 15-day SC 5 mg/kg
Method: Male F344 rats (Harlan, Italy) were housed at a temperature of 22±2° C. under a daily cycle of 12/12 h light/dark (light from 6:00) with free access to water and a standard chow diet St-1 (Mlýn Kocanda, Praha, Czech Republic).
To induce renal dysfunction, 5/6 nephrectomy was performed to anesthetized 8-week-old rats (SNx group, n=14); the control group was sham-operated (Sham group, n=6). Starting from the following day, the rats were SC injected with saline or ghrelin analog no. 2 (5 mg/kg of body weight, dissolved in saline) for 15 days. Food intake and body weight of the rats was monitored every day. At the end of the experiment, blood was collected for determination of pro-inflammatory cytokines using the Milliplex MAP Rat Cytokine/Chemokine Magnetic Bead Panel (Merck-Millipore, St. Charles, Mo., USA).

Compound	% of ghrelin binding (human GHS-R1a receptor)	maximal effect at 5 mg/kg on food intake (fed C57BL/6 male mice)	ED50 (250 min after injection), effect on food intake (fed C57BL/6 male mice)	affinity for GHS-R1a compared with ghrelin (human GHS-R1a receptor)	other results
CCCCCCCCCCCCCC(=O)NC[C@H](NC(=O)[C@H](CO)NC(=O)CNC)C(=O)N[C@@H](CC1CCCCC1)C(=O)N[C@@H](CC(C)C)C(=O)N[C@@H](CO)C(=O)N1CCC[C@H]1C(=O)N[C@@H](CCC(=O)O)C(=O)N[C@@H](Cc1c[nH]cn1)C(=O)N[C@@H](CCC(N)=O)C(=O)N[C@@H](CCCCN)C(=O)N[C@@H](C)C(=O)N[C@@H](CCC(N)=O)C(=O)N[C@@H](CCC(N)=O)C(=O)N[C@@H](CCCNC(=N)N)C(=O)N[C@@H](CCCCN)C(=O)N[C@@H](CCC(=O)O)C(=O)N[C@@H](CO)C(=O)N[C@@H](CCCCN)C(=O)N[C@@H](CCCCN)C(=O)N1CCC[C@H]1C(=O)N1CCC[C@H]1C(=O)N[C@@H](C)C(=O)N[C@@H](CCCCN)C(=O)N[C@@H](CC(C)C)C(=O)N[C@@H](CCC(N)=O)C(=O)N1CCC[C@H]1C(=O)N[C@@H](CCCNC(=N)N)C(=O)O [Analog 6] (H-[Sar]S[Dap](Myristoyl)[Cha]LSPEHQKAQQRKESKKPPAKLQPR-OH; N-terminus and C-terminus assumed)	18%	276.2 % of Dpr^3ghr	3.05 mg/kg	–	stability in vivo compared with ghrelin or Dpr^3ghrelin [1]: significantly more stable than ghrelin or Dpr^3ghrelin; half-life ([1]; male, C57BL/6, mouse, plasma): 7 h
CCCCCCCCCC(=O)NC[C@H](NC(=O)[C@H](CO)NC(=O)CNC)C(=O)N[C@@H](Cc1ccccc1)C(=O)N[C@@H](CC(C)C)C(=O)N[C@@H](CO)C(=O)N1CCC[C@H]1C(=O)N[C@@H](CCC(=O)O)C(=O)N[C@@H](Cc1c[nH]cn1)C(=O)N[C@@H](CCC(N)=O)C(=O)N[C@@H](CCCCN)C(=O)N[C@@H](C)C(=O)N[C@@H](CCC(N)=O)C(=O)N[C@@H](CCC(N)=O)C(=O)N[C@@H](CCCNC(=N)N)C(=O)N[C@@H](CCCCN)C(=O)N[C@@H](CCC(=O)O)C(=O)N[C@@H](CO)C(=O)N[C@@H](CCCCN)C(=O)N[C@@H](CCCCN)C(=O)N1CCC[C@H]1C(=O)N1CCC[C@H]1C(=O)N[C@@H](C)C(=O)N[C@@H](CCCCN)C(=O)N[C@@H](CC(C)C)C(=O)N[C@@H](CCC(N)=O)C(=O)N1CCC[C@H]1C(=O)N[C@@H](CCCNC(=N)N)C(=O)O [Analog 1]	183%	218.8 % of Dpr^3ghr	3.90 mg/kg	higher affinities for GHS-R1a than ghrelin	–
CCCCCCCCCCCCCCCC(=O)NCCCC[C@H](NC(=O)[C@H](C)NC(=O)[C@@H]1CCCN1C(=O)[C@@H]1CCCN1C(=O)[C@H](CCCCN)NC(=O)[C@H](CCCCN)NC(=O)[C@H](CO)NC(=O)[C@H](CCC(=O)O)NC(=O)[C@H](CCCCN)NC(=O)[C@H](CCCNC(=N)N)NC(=O)[C@H](CCC(N)=O)NC(=O)[C@H](CCC(N)=O)NC(=O)[C@H](C)NC(=O)[C@H](CCCCN)NC(=O)[C@H](CCC(N)=O)NC(=O)[C@H](Cc1c[nH]cn1)NC(=O)[C@H](CCC(=O)O)NC(=O)[C@@H]1CCCN1C(=O)[C@H](CO)NC(=O)[C@H](CC(C)C)NC(=O)[C@H](Cc1cccc2ccccc12)NC(=O)[C@H](CNC(=O)CCCCCCC)NC(=O)[C@H](CO)NC(=O)CNC)C(=O)N[C@@H](CC(C)C)C(=O)N[C@@H](CCC(N)=O)C(=O)N1CCC[C@H]1C(=O)N[C@@H](CCCNC(=N)N)C(=O)O [Analog 9] (H-[Sar]S[Dap](Octanoyl)[1Nal]LSPEHQKAQQRKESKKPPAK(Palmitoyl)LQPR-OH; N-terminus and C-terminus assumed)	5%	171.1 % of Dpr^3ghr	–	–	–
(Sar)S(Dpr-N-myr)FLSPEHQKAQQRKESKKPPAKLQPR (XSXFLSPEHQKAQQRKESKKPPAKLQPR; Sar N-terminus; myristoylated Dpr; ghrelin analog) [Analog 2]	–	–	–	–	IL-1α in blood plasma [2]: 392.3 ± 49.5 pg/mL; IL-2 in blood plasma [2]: 28.1 ± 9.3 pg/mL; IL-6 in blood plasma [2]: 337.3 ± 62.8 pg/mL; IL-10 in blood plasma [2]: 150.7 ± 6.2 pg/mL; TNF-α in blood plasma [2]: 32.6 ± 3.8 pg/mL
CCCCCCCCCC(=O)NC[C@H](NC(=O)[C@H](CO)NC(=O)CNC)C(=O)N[C@@H](CC1CCCCC1)C(=O)N[C@@H](CC(C)C)C(=O)N[C@@H](CO)C(=O)N1CCC[C@H]1C(=O)N[C@@H](CCC(=O)O)C(=O)N[C@@H](Cc1c[nH]cn1)C(=O)N[C@@H](CCC(N)=O)C(=O)N[C@@H](CCCCN)C(=O)N[C@@H](C)C(=O)N[C@@H](CCC(N)=O)C(=O)N[C@@H](CCC(N)=O)C(=O)N[C@@H](CCCNC(=N)N)C(=O)N[C@@H](CCCCN)C(=O)N[C@@H](CCC(=O)O)C(=O)N[C@@H](CO)C(=O)N[C@@H](CCCCN)C(=O)N[C@@H](CCCCN)C(=O)N1CCC[C@H]1C(=O)N1CCC[C@H]1C(=O)N[C@@H](C)C(=O)N[C@@H](CCCCN)C(=O)N[C@@H](CC(C)C)C(=O)N[C@@H](CCC(N)=O)C(=O)N1CCC[C@H]1C(=O)N[C@@H](CCCNC(=N)N)C(=O)O [Analog 5] (H-[Sar]S[Dap](Decanoyl)[Cha]LSPEHQKAQQRKESKKPPAKLQPR-OH; N-terminus and C-terminus assumed)	110%	204.5 % of Dpr^3ghr	1.02 mg/kg	higher affinities for GHS-R1a than ghrelin	–
CCCCCCCCCCCCCC(=O)NC[C@H](NC(=O)[C@H](CO)NC(=O)CNC)C(=O)N[C@@H](Cc1ccccc1)C(=O)N[C@@H](CC(C)C)C(=O)N[C@@H](CO)C(=O)N1CCC[C@H]1C(=O)N[C@@H](CCC(=O)O)C(=O)N[C@@H](Cc1c[nH]cn1)C(=O)N[C@@H](CCC(N)=O)C(=O)N[C@@H](CCCCN)C(=O)N[C@@H](C)C(=O)N[C@@H](CCC(N)=O)C(=O)N[C@@H](CCC(N)=O)C(=O)N[C@@H](CCCNC(=N)N)C(=O)N[C@@H](CCCCN)C(=O)N[C@@H](CCC(=O)O)C(=O)N[C@@H](CO)C(=O)O [Analog 18] (H-[Sar]S[Dap](Myristoyl)FLSPEHQKAQQRKES-OH)	–	–	–	–	stability in vivo compared with ghrelin or Dpr^3ghrelin [1]: significantly more stable than ghrelin or Dpr^3ghrelin
CCCCCCCCCC(=O)NC[C@H](NC(=O)[C@H](CO)NC(=O)CNC)C(=O)N[C@@H](Cc1cccc2ccccc12)C(=O)N[C@@H](CC(C)C)C(=O)N[C@@H](CO)C(=O)N1CCC[C@H]1C(=O)N[C@@H](CCC(=O)O)C(=O)N[C@@H](Cc1c[nH]cn1)C(=O)N[C@@H](CCC(N)=O)C(=O)N[C@@H](CCCCN)C(=O)N[C@@H](C)C(=O)N[C@@H](CCC(N)=O)C(=O)N[C@@H](CCC(N)=O)C(=O)N[C@@H](CCCNC(=N)N)C(=O)N[C@@H](CCCCN)C(=O)N[C@@H](CCC(=O)O)C(=O)N[C@@H](CO)C(=O)N[C@@H](CCCCN)C(=O)N[C@@H](CCCCN)C(=O)N1CCC[C@H]1C(=O)N1CCC[C@H]1C(=O)N[C@@H](C)C(=O)N[C@@H](CCCCN)C(=O)N[C@@H](CC(C)C)C(=O)N[C@@H](CCC(N)=O)C(=O)N1CCC[C@H]1C(=O)N[C@@H](CCCNC(=N)N)C(=O)O [Analog 3] (H-[Sar]S[Dap](Decanoyl)[1Nal]LSPEHQKAQQRKESKKPPAKLQPR-OH; N-terminus and C-terminus assumed)	176%	220.3 % of Dpr^3ghr	0.64 mg/kg	higher affinities for GHS-R1a than ghrelin	–
